Assays:
harmful plants [1] = assay: Herbicidal post-emergence action 1a, summary across species; format: in vivo; conditions: Tables A1 to A15 (320 g/ha and/or 80 g/ha)
Procedure: a) Seeds of monocotyledonous and dicotyledonous weeds and crop plants are placed in sandy loam in plastic or organic plant pots, covered with soil and cultivated in a greenhouse under controlled growth conditions. 2 to 3 weeks after sowing, the test plants are treated at the one-leaf stage. The compounds of the invention, formulated in the form of wettable powders (WP) or as emulsion concentrates (EC), are then sprayed onto the green parts of the plants as aqueous suspension or emulsion with addition of 0.5% additive at a water application rate of 600 1/ha (converted). After the test plants have been kept in the greenhouse under optimum growth conditions for about 3 weeks, the activity of the preparations is rated visually in comparison to untreated controls. For example, 100% activity=the plants have died, 0% activity=like control plants.
Tables A1 to A15 below show the effects of selected compounds of the general formula (I) according to Tables 1 and 2 on various harmful plants and an application rate corresponding to 320 g/ha and/or 80 g/ha, which were obtained by the experimental procedure mentioned above.
For example, compound nos. I-05, I-07, I-08, I-10, I-12, I-16, I-17, I-22, I-36, I-37, I-39 and I-40 in the post-emergence method have very good action (80% to 100% herbicidal activity) against harmful plants such as Alopecurus myosuroides, Amaranthus retroflexus, Avena fatua, Lolium rigidum, Polygonum convolvulus, Setaria viridis, Veronica persica and Viola tricolor at an application rate of 0.32 kg of active substance per hectare.

LOLRI = assay: Herbicidal pre-emergence action 2a (greenhouse pots, visual scoring); format: in vivo, Lolium rigidum; conditions: dosage 320 g/ha, visual scoring after about 3 weeks vs untreated controls
Outline: (§1)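 Visual percent rating, ~3 weeks after treatment, untreated pots as reference (0% = control-like, 100% = killed). Application: formulated compound on soil surface over seeds, 320 g/ha and/or 80 g/ha.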

ALOMY = assay: Herbicidal post-emergence action 1a (greenhouse pots, visual rating); format: in vivo, Alopecurus myosuroides; conditions: rated visually about 3 weeks after treatment, 100% = plants have died, 0% = like control plants
Outline: (§2)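 Weeds and crops sown in sandy loam in greenhouse pots were sprayed post-emergence at the one-leaf stage (2–3 weeks after sowing) with WP or EC formulations plus 0.5% additive at 600 l/ha water, 320 and/or 80 g/ha. About 3 weeks later damage was rated visually against untreated controls (0% = no effect, 100% = dead).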

AMARE = assay: as above; format: in vivo, Amaranthus retroflexus; conditions: visual rating about 3 weeks after treatment
Outline: as §2

DIGSA = assay: Herbicidal pre-emergence action 2a (greenhouse pots, visual scoring); format: in vivo, Digitaria sanguinalis; conditions: dosage 320 g/ha, visual scoring after about 3 weeks
Outline: as §1

harmful plants [2] = assay: Herbicidal pre-emergence action 2a, summary across species; format: in vivo; conditions: Tables B1 to B15 (320 g/ha and/or 80 g/ha)
Text: a) Seeds of monocotyledonous and dicotyledonous weed plants and crop plants are placed in plastic or organic plant pots and covered with soil. The compounds of the invention, formulated in the form of wettable powders (WP) or as emulsion concentrates (EC), are then applied onto the surface of the covering soil as aqueous suspension or emulsion with addition of 0.5% additive at a water application rate of 600 1/ha (converted). After the treatment, the pots are placed in a greenhouse and kept under good growth conditions for the trial plants. After about 3 weeks, the effect of the preparations is scored visually in comparison with untreated controls as percentages. For example, 100% activity=the plants have died, 0% activity=like control plants.
Tables B1 to B15 below show the effects of selected compounds of the general formula (I) according to Tables 1 and 2 on various harmful plants and an application rate corresponding to 320 g/ha and/or 80 g/ha, which were obtained by the experimental procedure mentioned above.
For example, compound nos. I-07, I-08, I-11, I-12, I-13, I-16, I-17, I-20, I-36, I-37, I-39, I-45, I-46, I-48, I-52 and I-53 in the pre-emergence method have very good action (80% to 100% herbicidal activity) against harmful plants such as Alopecurus myosuroides, Amaranthus retroflexus, Digitaria sanguinalis, Lolium rigidum, Polygonum convolvulus, Setaria viridis, Veronica persica and Viola tricolor at an application rate of 0.32 kg of active substance per hectare.

POAAN = assay: Herbicidal pre-emergence action 2b (doubly sown, 1280 g/ha); format: in vivo, Poa annua; conditions: doubly sown pots, dosage 1280 g/ha, visual scoring after about 3 weeks
Outline: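 Read-out: visual percentage damage relative to untreated controls, scored after roughly 3 weeks in the greenhouse, where 100% means plants died and 0% equals control. Seeds were sown two species per pot in sandy loam and covered before the compounds, formulated as WP or EC with 0.5% additive, were sprayed onto the soil at 600 L/ha.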

| Structure (SMILES) | herbicidal efficacy against harmful plants in the case of post-emergence treatment (in words) (harmful plants [1]) | Pre-emergence action against LOLRI in % (LOLRI) [%] | Post-emergence action against ALOMY in % (ALOMY; Dosage 80 g/ha) [%] | Post-emergence action against ALOMY in % (ALOMY; Dosage 320 g/ha) [%] | Post-emergence action against AMARE in % (AMARE; dosage 80 g/ha) [%] | Post-emergence action against AMARE in % (AMARE; dosage 320 g/ha) [%] | Pre-emergence action against DIGSA in % (DIGSA) [%] | herbicidal efficacy against harmful plants in the case of pre-emergence treatment (in words) (harmful plants [2]) | Pre-emergence action at 1280 g/ha against POAAN in % (POAAN) [%] |
| --- | --- | --- | --- | --- | --- | --- | --- | --- | --- |
| COC(=O)COc1nn(-c2cnccn2)c(-c2ccc(F)c(F)c2)c1Br [Example I-15] | good herbicidal efficacy | 100 | 80 | 80 | 80 | 80 | 100 | good herbicidal efficacy |  |
| CCOC(=O)COc1nn(-c2cnccn2)c(-c2ccc(F)nc2)c1Br [Example I-52, ethyl {[4-bromo-5-(6-fluoropyridin-3-yl)-1-(pyrazin-2-yl)-1H-pyrazol-3-yl]oxy}acetate] |  | 100 | 80 | 90 | 90 | 80 | 100 | good herbicidal efficacy | 100 |
| COC(=O)C(C)Oc1nn(-c2cnccn2)c(-c2ccnc(F)c2)c1Br (racemic) [Example I-10] | good herbicidal efficacy | 100 | 90 | 90 |  | 80 | 100 |  | 100 |
| C[C@@H](Oc1nn(-c2cnccn2)c(-c2cccc(F)c2)c1Br)C(=O)O [Example I-48] |  | 100 | 90 |  |  |  | 100 | good herbicidal efficacy | 100 |
| COC(=O)[C@@H](C)Oc1nn(-c2cnccn2)c(-c2ccc(F)c(F)c2)c1C#N [Example I-46] |  | 100 | 90 | 90 | 80 | 80 | 100 | good herbicidal efficacy | 100 |
| COC(=O)[C@@H](C)Oc1nn(-c2cnccn2)c(-c2cccc(F)c2)c1Br [Example I-20] | good herbicidal efficacy |  | 80 | 90 | 90 | 100 | 100 | good herbicidal efficacy | 100 |
| COC(=O)[C@@H](C)Oc1nn(-c2cnccn2)c(-c2cncc(F)c2)c1C#N [Example I-40] | good herbicidal efficacy | 90 | 80 | 90 | 80 | 90 | 100 |  | 100 |
| COC(=O)COc1nn(-c2cnccn2)c(-c2cncc(F)c2)c1Br [Example I-07] | good herbicidal efficacy | 100 | 90 | 100 |  | 80 | 100 | good herbicidal efficacy |  |

Reference: US20230167088A1, “1-PYRAZINYLPYRAZOLYL-3-OXYALKYL ACIDS AND THEIR DERIVATIVES, AND THEIR USE FOR CONTROL OF UNDESIRED PLANT GROWTH” (BAYER AKTIENGESELLSCHAFT, priority 2020, published 2023)
